Source: patent US20220281866A1, “5,8-DISUBSTITUTED-[1,2,4]TRIAZOLO[1,5-A]PYRIDINYL AND 5,8-DISUBSTITUTED-IMIDAZO[1,2-A]PYRIDINE DERIVATIVES USEFUL AS INHIBITORS OF ENTEROPEPTIDASE” (Janssen Pharmaceutica NV, priority 2019, published 2022)

Key:
[1] = biological target: T1, Bovine trypsin (Bos taurus, UniProt P00760); assay: Biochemical Assay of Trypsin (T), H-D-CHA-AR-AMC substrate; settings: 15 μM substrate, 0.025 nM Trypsin; for kinact/KI: 12-point dose-dependence, time-dependent inhibition, duplicate dilutions, read-out: Kinact/KI^App; for inhibition at 0.1 µM: compound 0.1 μM; for inhibition at 1 µM: compound 1 μM; for inhibition at 10 µM: compound 10 μM
T1 construct: purchased Sigma-Aldrich T1426
T1 sequence (P00760 24-246): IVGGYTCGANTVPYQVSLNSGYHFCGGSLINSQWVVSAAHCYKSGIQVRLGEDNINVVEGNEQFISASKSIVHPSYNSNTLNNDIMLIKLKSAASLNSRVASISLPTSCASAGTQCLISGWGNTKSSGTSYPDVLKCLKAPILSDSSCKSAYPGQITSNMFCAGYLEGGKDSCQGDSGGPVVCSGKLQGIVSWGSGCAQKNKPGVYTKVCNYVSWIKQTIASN
Method: Bovine trypsin was purchased from Sigma-Aldrich (Cat No. T1426), and 7-amino-4-methylcoumarin (AMC) conjugated peptide H-D-cyclohexylalanine (D-CHA)-AR-AMC was used as the substrate in the assay. The protease activity of trypsin was followed by measuring AMC production by the emission fluorescence intensity of AMC at 460 nm with the excitation at 375 nm, in the same assay buffer as used in the EP assay. The enzyme kinetic characterization studies yielded an average of KM to be 3.9±0.5 μM and the apparent turnover number kcat^app of 33.8±0.4 s^−1 (N=2).
Studies of compound inhibition against T were carried out under the conditions of 15 μM substrate and 0.025 nM Trypsin. Reaction progress curves were collected by reading the FI at 375/460 nm continuously for 1 hour at an interval of 1 minute. Similar to the procedure for Enteropeptidase described above, compounds of formula (I) were screened against Trypsin at 4 different concentrations to obtain the percent of inhibition at 10 μM, 1 μM, 0.1 μM and 0.01 μM, and accurate potencies of selected compounds against Trypsin were derived from detailed 12-point dose-dependence studies for time-dependent inhibitors.
(§1) Representative compounds of the present invention were tested according to the procedures as described in Biological Example 1 and Biological Example 2 above, with results as listed in Table 2 and Table 3, below. Results are reported as the %-inhibition (% Inh) or Kinact/KI value. Variability for the functional assay was typically within 20%. For the column headed Kinact/KI the listed measurement is the result of duplicate dilutions.

[2] = biological target: T2, Recombinant full-length human EP (Enteropeptidase) (Homo sapiens, UniProt P98073); assay: In vitro inhibition potencies against Enteropeptidase (EP), fluorescent peptide GDDDDK-naphthylamine substrate; type: biochemical; settings: 300 μM substrate, 1.25 nM EP; for kinact/KI: 12-point dose-dependence, time-dependent inhibition, duplicate dilutions, read-out: kinact/KI^App; for inhibition at 0.1 µM: compound 0.1 μM; for inhibition at 1 µM: compound 1 μM; for inhibition at 10 µM: compound 10 μM
T2 construct: Recombinant full-length human EP (PeproTech, Cat #450-48C); purchased PeproTech 450-48C
Method: In vitro inhibition potencies against Enteropeptidase (EP) Recombinant full-length human EP (PeproTech, Cat #450-48C) was used in this biochemical assay, with a quenched fluorescent labeled peptide GDDDDK-naphthylamine (NA) (Sigma, Cat #G5261) as the substrate in a buffer of 50 mM Tris-HCl pH 7.4, 200 mM NaCl and 0.01% Triton X-100. The enzyme activity was measured by following the formation of the cleavage product […](NA) by monitoring the fluorescence intensity (FI) at excitation/emission wavelengths of 340/410 nm. The steady-state kinetic characterization studies yielded an average of KM to be 412±22 μM and the apparent turnover number kcat^app of 11.8±0.4 s^−1 (N=2).
Compound inhibition studies were carried out under the conditions of 300 μM substrate and 1.25 nM EP. Reaction progress curves were collected by reading the FI at 340/410 nm continuously for 1 hour at an interval of 1 minute.
To screen compounds of formula (I), inhibition was studied at 4 different compound concentrations of 10 μM, 1 μM, 0.1 μM and 0.01 μM. Initial velocity of the reaction was determined, and percent of inhibition was calculated by comparing to the reaction in the absence of compound.
Accurate measurements of the inhibition potencies of selected compounds were studied in a 12-point dose-dependence fashion. […] Compound potency was measured by determining the inactivation rate constant (kobs) following the reaction change from the initial velocity vi to the steady-state velocity vs at various compound concentrations. The inactivation rate constants (kobs), were derived by fitting the reaction progress curves to eq. 1.
where YT is the detection signal of the reaction at time t, vi and vs are the initial and the steady-state velocities of the reaction, t is the reaction time. Y0 is the background signal (when t=0).
Compound binding mechanism was shown by plotting kobs˜[compound]. Hyperbolic fitting to eq. 2
conforms to a two-step binding mechanism as shown in Scheme BIO-1.
The plateau of the curve is the forward step rate constant of the isomerization step k3, KI^app is the inhibitor concentration that leads to half-maximal rate of inhibition of enzyme under the assay conditions. Compound inhibition potency was reported by the value of k3/KI^app.
A linear dependence of eq.3
indicates a one-step binding mechanism as shown in Scheme BIO-2
Slope of the linear fit gives the second-order rate constant of the compound binding k1, which is used to represent the compound inhibition potency.
as §1

T2 sequence (P98073 whole entry): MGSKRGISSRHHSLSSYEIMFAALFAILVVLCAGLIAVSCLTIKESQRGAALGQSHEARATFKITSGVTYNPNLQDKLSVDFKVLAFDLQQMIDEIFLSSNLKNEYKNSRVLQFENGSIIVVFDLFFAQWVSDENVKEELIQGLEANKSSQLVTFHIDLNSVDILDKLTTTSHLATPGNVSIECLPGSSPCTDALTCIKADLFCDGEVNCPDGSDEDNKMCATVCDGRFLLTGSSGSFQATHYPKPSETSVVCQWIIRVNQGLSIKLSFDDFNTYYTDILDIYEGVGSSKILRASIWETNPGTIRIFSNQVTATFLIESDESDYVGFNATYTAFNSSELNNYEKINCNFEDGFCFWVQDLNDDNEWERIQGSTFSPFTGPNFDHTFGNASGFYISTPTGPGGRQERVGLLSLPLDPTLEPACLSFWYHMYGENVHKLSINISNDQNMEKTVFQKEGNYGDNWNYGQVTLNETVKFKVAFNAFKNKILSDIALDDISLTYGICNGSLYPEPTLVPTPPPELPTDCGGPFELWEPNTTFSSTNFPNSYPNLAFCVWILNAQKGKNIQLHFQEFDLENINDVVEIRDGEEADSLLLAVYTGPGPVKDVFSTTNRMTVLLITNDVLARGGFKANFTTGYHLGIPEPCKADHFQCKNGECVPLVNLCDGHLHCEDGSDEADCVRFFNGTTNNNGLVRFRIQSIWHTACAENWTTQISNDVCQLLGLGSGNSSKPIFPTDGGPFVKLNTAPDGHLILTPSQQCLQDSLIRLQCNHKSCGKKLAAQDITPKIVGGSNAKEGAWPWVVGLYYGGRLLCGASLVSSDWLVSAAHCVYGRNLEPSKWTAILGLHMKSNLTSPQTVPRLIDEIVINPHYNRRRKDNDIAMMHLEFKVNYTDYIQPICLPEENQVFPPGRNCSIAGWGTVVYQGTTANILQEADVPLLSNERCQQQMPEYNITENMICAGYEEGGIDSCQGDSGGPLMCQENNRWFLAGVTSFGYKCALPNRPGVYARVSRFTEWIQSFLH

Row | kinact/KI [1] [M⁻¹ s⁻¹] | inhibition at 0.1 µM [1] [%] | inhibition at 1 µM [1] [%] | inhibition at 10 µM [1] [%] | kinact/KI [2] [M⁻¹ s⁻¹] | inhibition at 0.1 µM [2] [%] | inhibition at 1 µM [2] [%] | inhibition at 10 µM [2] [%] | Compound
1 | 40100 | 76.1 | 99.5 | 100 | 12300 | 56.5 | 99.9 | 99.9 | C#CCOCC#Cc1cc(NC(=N)N)ccc1C(=O)Oc1ccc(CC(=O)O)n2ncnc12 [Compound 43, 2-(8-((4-Guanidino-2-(3-(prop-2-yn-1-yloxy)prop-1-yn-1-yl)benzoyl)oxy)-[1,2,4]triazolo[1,5-a]pyridin-5-yl)acetic acid]
2 | – | 95.8 | 99.7 | 100 | – | 95.3 | 99.4 | 100 | N=C(N)Nc1ncc(C(=O)Oc2ccc(CC(=O)O)n3ccnc23)cn1 [Compound 29, 2-(8-(2-guanidinopyrimidine-5-carbonyloxy)imidazo[1,2-a]pyridin-5-yl)acetic acid]
3 | 69700 | 87.6 | 100 | 100 | 72800 | 96.8 | 100 | 100 | N=C(N)Nc1ccc(C(=O)Oc2ccc(CC(=O)O)n3ncnc23)cc1F [Compound 14, 2-(8-(3-fluoro-4-guanidinobenzoyloxy)-[1,2,4]triazolo[1,5-a]pyridin-5-yl)acetic acid]
4 | – | 13.8 | 72.4 | 99.9 | – | 20.8 | 87.1 | 101 | COc1cc(C(=O)Oc2ccc(CC(=O)O)n3ncnc23)ccc1NC(=N)N [Compound 12, 2-(8-(4-guanidino-3-methoxybenzoyloxy)-[1,2,4]triazolo[1,5-a]pyridin-5-yl)acetic acid]
5 | – | 99.3 | 100 | 100 | – | 89.7 | 101 | 100 | N=C(N)Nc1ccc(C(=O)Oc2ccc(Cc3nn[nH]n3)n3ncnc23)cc1 [Compound 11, 5-((2H-tetrazol-5-yl)methyl)-[1,2,4]triazolo[1,5-a]pyridin-8-yl 4-guanidinobenzoate]
6 | 111000 | 96.3 | 101 | 101 | 210000 | 101 | 100 | 100 | N=C(N)Nc1ccc(C(=O)Oc2ccc(CC(=O)O)n3ccnc23)cc1 [Compound 9, 2-(8-(4-guanidinobenzoyloxy)imidazo[1,2-a]pyridin-5-yl)acetic acid]
7 | – | 81.7 | 100 | 100 | – | 13.2 | 58.8 | 101 | N=C(N)Nc1ccc(C(=O)Oc2cc(CC(=O)O)cn3ncnc23)cc1 [Compound 26, 2-(8-(4-guanidinobenzoyloxy)-[1,2,4]triazolo[1,5-a]pyridin-6-yl)acetic acid]
8 | – | 99.7 | 100 | 100 | – | 48.1 | 101 | 100 | N=C(N)Nc1ccc(C(=O)Oc2ccc(CC(=O)NCC(=O)O)n3ncnc23)cc1 [Compound 4, 2-(2-(8-(4-guanidinobenzoyloxy)-[1,2,4]triazolo[1,5-a]pyridin-5-yl)acetamido)acetic acid]
9 | – | 97.8 | 99.9 | 100 | – | 88.6 | 98.5 | 99.9 | N=C(N)Nc1ncc(C(=O)Oc2ccc(CC(=O)NC(CC(=O)O)C(=O)O)n3ncnc23)cn1 (stereo not drawn) [Compound 28, 2-(2-(8-(2-guanidinopyrimidine-5-carbonyloxy)-[1,2,4]triazolo[1,5-a]pyridin-5-yl)acetamido)succinic acid]
10 | – | -3.1 | -3.3 | 18.2 | – | 2.4 | 9.1 | 34 | CONC(=N)c1ccc(C(=O)Oc2ccc(CC(=O)O)n3ncnc23)cc1 [Compound 36, 2-(8-(4-(N-methoxycarbamimidoyl)benzoyloxy)-[1,2,4]triazolo[1,5-a]pyridin-5-yl)acetic acid]
11 | – | 89.6 | 99.9 | 100 | – | 20.9 | 72.9 | 101 | N=C(N)Nc1ccc(C(=O)Oc2ccc(CC(=O)N(CC(=O)O)CC(=O)O)n3ncnc23)cc1 [Compound 6, 2,2′-(2-(8-(4-guanidinobenzoyloxy)-[1,2,4]triazolo[1,5-a]pyridin-5-yl)acetamido)diacetic acid]
